Laboratory results from patent US20240424053A1, “METHODS AND COMPOSITIONS FOR PROVIDING MYOCARDIAL PROTECTION AND TREATING MYOCARDIAL STRESS AND FIBROSIS” (Tufts Medical Center, Inc., priority 2021, published 2024).
“Also recorded” adds a separate entry of the source. Where a SMILES comes first, the peptide text is derived from it. The star is where a group is joined. Palmitoyl = CCCCCCCCCCCCCCCC(=O)*

Assays:
PAR1 [1] = conditions: cited from earlier work
PAR1 [2] = target: T1, PAR1 (Mus musculus, UniProt P30558); test: echocardiography after 3 days reperfusion following 30 min myocardial ischemia in mice; format: in vivo; conditions: 10 mg/kg sc once daily, n=4
T1 construct: endogenous in cells; host or cells: male C57BL/6N mice, in vivo
T1 sequence (P30558 22-430): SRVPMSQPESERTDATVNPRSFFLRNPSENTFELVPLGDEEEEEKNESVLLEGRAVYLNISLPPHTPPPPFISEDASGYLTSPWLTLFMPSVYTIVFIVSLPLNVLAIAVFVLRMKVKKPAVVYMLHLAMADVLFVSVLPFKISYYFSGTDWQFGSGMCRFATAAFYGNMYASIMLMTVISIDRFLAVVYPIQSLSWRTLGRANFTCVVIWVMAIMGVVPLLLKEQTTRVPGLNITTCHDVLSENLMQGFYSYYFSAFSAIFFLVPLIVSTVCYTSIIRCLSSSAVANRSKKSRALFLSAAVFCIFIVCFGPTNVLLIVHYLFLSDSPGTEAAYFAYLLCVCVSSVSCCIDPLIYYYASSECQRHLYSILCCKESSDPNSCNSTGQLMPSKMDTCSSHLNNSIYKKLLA
Protocol: A role of PAR1 in directly mediating cardiac ischemic myonecrosis—independent of established platelet-dependent effects (Strande et al., Basic Res. Cardiol. 102(4):350-358, 2007)—was also examined. […] Mice (n=7) were treated with vehicle or 10 mg/kg PZ-128 (subcutaneous; sc) just prior to ischemic injury. As shown in FIG. 1a-d, PZ-128-treated mice had 51-62% reductions in mean cardiac Infarct Area (p<0.01), Area At Risk (p<0.01), and Total Ischemic Area (p<0.0001) compared to vehicle-treated mice. […] Using echocardiography after 3 days of reperfusion, there was a significant increase in left ventricular mass (p<0.05) in vehicle compared to PZ-128 treated cohorts, with no difference in left ventricular mass between baseline and 3 days in the PZ-128 cohort (FIG. 2). […] Previous pharmacokinetic studies of subcutaneously administered PZ-128 in mice were the basis of this 10 mg/kg dose in mice (Cisowski et al., Am. J. Pathol. 179(1):513-523, 2011), selected to match the 0.3-0.5 mg/kg doses administered in humans.
A subset of male C57BL6N mice from each group subjected to 30 min left coronary artery ischemia (FIGS. 1A-1E) were reperfused for 3 days (n=4 vehicle, n=4 10 mg/kg PZ-128 sc once daily).

PAR1 [3] = target: T2, PAR1 (Homo sapiens, UniProt P25116); conditions: subjects with coronary artery disease; cited from earlier work
T2 construct: delivered intravenously in 100 patients with coronary artery disease (CAD) and acute coronary syndrome (ACS) undergoing cardiac catheterization; endogenous in cells; host or cells: patients of the TRIP-PCI trial (platelets ex vivo; whole body in vivo)
T2 sequence (P25116 22-425): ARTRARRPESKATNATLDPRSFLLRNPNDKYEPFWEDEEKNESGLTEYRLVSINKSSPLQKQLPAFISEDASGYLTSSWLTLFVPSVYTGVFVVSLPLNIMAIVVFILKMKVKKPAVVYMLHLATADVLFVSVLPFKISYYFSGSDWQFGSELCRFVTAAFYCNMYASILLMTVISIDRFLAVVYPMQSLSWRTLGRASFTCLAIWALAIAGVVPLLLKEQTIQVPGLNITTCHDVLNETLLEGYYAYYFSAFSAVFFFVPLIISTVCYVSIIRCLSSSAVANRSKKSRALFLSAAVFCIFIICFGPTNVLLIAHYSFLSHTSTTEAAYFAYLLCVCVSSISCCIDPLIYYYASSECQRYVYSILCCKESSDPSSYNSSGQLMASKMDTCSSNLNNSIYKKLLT

PAR1 [4] = target: T2, PAR1; conditions: cited from earlier work
PAR1 [5] = target: T1, PAR1; test: thoracic aortic constriction (TAC) LV pressure overload model of HFrEF in mice; format: in vivo
Protocol: Male C57BL/6N mice were treated daily for 7 weeks with vehicle or 10 mg/kg PZ-128 sc following 25G transaortic constriction (TAC) or sham surgery (Richards et al., Scientific Reports 9(1):5844, 2019) (n=5-7). (FIG. 4A) Photomicrographs of interstitial fibrosis in cardiac sections stained with sirius red from Sham and TAC animals treated with Veh or PZ-128. (FIG. 4B) Interstitial collagen area from animals in A was quantified along with (FIG. 4C) Col1a1 expression by Q-PCR. (FIGS. 4D-4E) LV fractional shortening and ejection fraction were quantified by ECHO. (FIG. 4F) The outline of cardiomyocytes was identified by wheat germ agglutinin (WGA-green) staining with (FIG. 4G) mean myocyte area digitally quantified. (FIG. 4H) Mean weight (mg) of LV normalized to tibia length (mm).
(FIG. 5A) Photomicrographs of CD11 b+monocytes/macrophages and CD4+ T cells in Sham vs TAC in mice treated with vehicle or PZ-128 as in FIGS. 4A-4H, with CD11 b staining area quantified in FIG. 5B and T cells quantified in FIG. 5C.
TAC vs Sham mice were treated for 7 weeks with vehicle or PZ-128, and cardiac fibrosis and LV hypertrophy indices measured. […] This may indicate that unlike upstream thrombin (Dong et al., Thromb. Res. 159:58-64, 2017) or factor Xa (Yurista et al., Cardiovasc. Drugs Ther. 35(5):953-963, 2021) blockade, inhibition of PAR1 may effectively suppress cardiac hypertrophy by reducing the total ventricular mass, potentially by reducing MMP1-PAR1 driven fibrosis/remodeling and cardiac fibroblast expansion.
To obtain additional data to support PAR1 as a potentially important contributor to HF pathogenesis via inflammation, we investigated the effect of PZ-128 on monocyte/macrophage and CD4+ T cells in the 7-week TAC LV pressure overload model. As shown in FIGS. 5A-5B, there was a marked amount of CD11 b+monocytes/macrophages in the cardiac tissue from the TAC animals which was suppressed by nearly 90% by PZ-128 treatment.

[6] = 7 weeks, Q-PCR relative to GAPDH mRNA, preliminary

Structure (SMILES): CCCCCCCCCCCCCCCC(=O)N[C@@H](CCCCN)C(=O)N[C@@H](CCCCN)C(=O)N[C@@H](CO)C(=O)N[C@@H](CCCNC(=N)N)C(=O)N[C@@H](C)C(=O)N[C@@H](CC(C)C)C(=O)N[C@@H](Cc1ccccc1)C(N)=O [PZ-128, Palmitate-KKSRALF-NH2] (Palmitoyl-KKSRALF-NH2)
- mode of action at PAR1 (PAR1 [1]): full PAR1 antagonists
- ejection fraction at 3 days compared to baseline (PAR1 [2]): no significant reductions; also recorded: maintained baseline
- fractional shortening at 3 days compared to baseline (PAR1 [2]): no significant reductions; also recorded: maintained baseline
- left ventricular mass, baseline vs 3 days (PAR1 [2]): no difference; also recorded: no significant differences
- platelet activation and hemostasis in phase 1 (PAR1 [3]): suppresses platelet activation without effects on hemostasis
- PAR1 aggregation response recovered (PAR1 [4]; at 14 days post-dose): 50%
- time at which inhibition of SFLLRN-induced platelet aggregation could be detected (PAR1 [4]; post-dose): ≤ 1 h
- time of peak inhibition of SFLLRN-induced platelet aggregation (PAR1 [4]; post-dose): 24 h
- LV mass (adjusted for tibia length) (PAR1 [5]; 10 mg/kg sc daily for 7 weeks): highly significant protective effect
- TAC-induced loss in ejection fraction by ECHO (PAR1 [5]; 10 mg/kg sc daily for 7 weeks): significant protective effects
- TAC-induced loss in fractional shortening by ECHO (PAR1 [5]; 10 mg/kg sc daily for 7 weeks): significant protective effects
- interstitial collagen (cardiac fibrosis) relative to vehicle (PAR1 [5]; 10 mg/kg sc daily for 7 weeks): dramatic anti-fibrotic effects
- suppression of the increase in mean myocyte cross-sectional area (PAR1 [5]; 10 mg/kg sc daily for 7 weeks): no effect
- Col1A1 expression relative to vehicle (PAR1 [5]; 10 mg/kg sc daily for 7 weeks, Q-PCR): dramatic anti-fibrotic effects
- suppression of CD11b+ monocytes/macrophages in cardiac tissue (PAR1 [5]; 7 weeks): ~90%
- CTGF gene expression (PAR1 [5]; [6]): reduces expression
- Cyr61 gene expression (PAR1 [5]; [6]): reduces expression
- IL-6 gene expression (PAR1 [5]; [6]): reduces expression
- TGFβ gene expression (PAR1 [5]; [6]): reduces expression
- TNFα gene expression (PAR1 [5]; [6]): reduces expression
- T cell infiltration (CD4+) (PAR1 [5]; 7 weeks, vehicle mice significant increases): non-significant increases
